Source: patent US9504747B2, “Lipids and lipid compositions for the delivery of active agents” (Novartis AG, priority 2013, dated 2016)

What was measured:
[1] = test system: respiratory syncytial virus F protein; test: Immunization studies: anti-RSV-F titers after liposome-delivered vA317 self-replicating RNA; assay type: in vivo; settings: BALB/c mice, Course A = days 0 & 21, liposomes with 0.1 μg vA317 replicon (naked control 1 μg)
Protocol: BALB/c were immunized with liposomes comprising DSPC, cholesterol, and various lipids of the invention (or, for comparison, the cationic lipid 1,2-dilinoleyloxy-N,N-dimethyl-3-aminopropane or ‘DLinDMA’). The liposomes encapsulated 0.1 μg of “vA317” self-replicating RNA replicon which encodes respiratory syncytial virus F protein (see WO2012/031043). […] Doses were given either on days 0 & 21 or days 0 & 42. Immune responses were assessed 2 weeks after each dose (2wp1, 2wp2), and in some cases also at 4 weeks after the second dose (4wp2). Four series of experiments were performed, each with its own naked control.

[2] = Polydispersity index (PDI) of the lipid nanoparticle (dynamic light scattering); assay type: physicochemical
Source text: The lipid nanoparticles (LNPs) were formed by mixing equal volumes of lipids dissolved in alcohol with siRNA dissolved in a citrate buffer by an impinging jet process. […] The siRNA to total lipid ratio is approximately 0.05 (wt/wt). Where a LNP formulation contains four lipid components, the molar ratios correspond to the type of lipid as it appears in the first four columns of the table, in the order that they appear. The ratio of the lipids ranges from 20 to 70 mole percent for the cationic lipid with a target of 40-60, the mole percent of helper lipid ranges from 20 to 70 with a target of 30 to 50, the mole percent of neutral lipid ranges from 0-30, the mole percent of PEG lipid has a range from 1 to 6 with a target of 2 to 5. The concentration of siRNA solution ranges from 0.7 to 1.0 mg/mL with a target of 0.8 to 0.9 mg/mL in a sodium citrate: sodium chloride buffer pH 4-6, with a target of 4.5-5.5. The LNPs are formed by mixing equal volumes of lipid solution in ethanol with siRNA dissolved in a citrate buffer by an impinging jet process through a mixing device with ID ranging from 0.25 to 2.0 mm at a flow rate from 10 to 640 mL/min. The mixed LNP solution is held at room temperature for 0-24 hrs prior to a dilution step. […] The final product is sterile filtered and stored at 4° C. Unless indicated otherwise, all PDIs referred to herein are the PDI of the fully formed nanoparticle, as measured by dynamic light scattering on a Malvern Zetasizer. The nanoparticle sample was diluted in phosphate buffered saline (PBS) so that the count rate was approximately 200-400 kcts. The data is presented in Tables 4 and 5 as a weighted average of the intensity measure.

[3] = Particle size of the lipid nanoparticle (dynamic light scattering, Malvern Zetasizer); assay type: physicochemical; settings: Table 4, FVII siRNA LNP, Z-average
Source text: The lipid nanoparticles have a size of about 1 to about 2,500 nm, about 1 to about 1,500 nm, about 1 to about 1,000 nm, in a sub-embodiment about 50 to about 600 nm, in a sub-embodiment about 50 to about 400 nm, in a sub-embodiment about 50 to about 250 nm, and in a sub-embodiment about 50 to about 150 nm. Unless indicated otherwise, all sizes referred to herein are the average sizes (diameters) of the fully formed nanoparticle, as measured by dynamic light scattering on a Malvern Zetasizer. The nanoparticle sample is diluted in phosphate buffered saline (PBS) so that the count rate is approximately 200-400 kcts. The data is presented as a weighted average of the intensity measure. The lipid nanoparticles (LNPs) were formed by mixing equal volumes of lipids dissolved in alcohol with siRNA dissolved in a citrate buffer by an impinging jet process. […] The siRNA to total lipid ratio is approximately 0.05 (wt/wt). Where a LNP formulation contains four lipid components, the molar ratios correspond to the type of lipid as it appears in the first four columns of the table, in the order that they appear. The ratio of the lipids ranges from 20 to 70 mole percent for the cationic lipid with a target of 40-60, the mole percent of helper lipid ranges from 20 to 70 with a target of 30 to 50, the mole percent of neutral lipid ranges from 0-30, the mole percent of PEG lipid has a range from 1 to 6 with a target of 2 to 5. The concentration of siRNA solution ranges from 0.7 to 1.0 mg/mL with a target of 0.8 to 0.9 mg/mL in a sodium citrate: sodium chloride buffer pH 4-6, with a target of 4.5-5.5. The LNPs are formed by mixing equal volumes of lipid solution in ethanol with siRNA dissolved in a citrate buffer by an impinging jet process through a mixing device with ID ranging from 0.25 to 2.0 mm at a flow rate from 10 to 640 mL/min. The mixed LNP solution is held at room temperature for 0-24 hrs prior to a dilution step. […] The final product is sterile filtered and stored at 4° C. Unless indicated otherwise, all particle size measurements referred to in Tables 4 and 5 are the Z-average particle size of the fully formed nanoparticle, as measured by dynamic light scattering on a Malvern Zetasizer. The nanoparticle sample was diluted in phosphate buffered saline (PBS) so that the count rate is approximately 200-400 kcts.

[4] = pKa measurement of the cationic lipid (TNS fluorescence vs pH); assay type: physicochemical; settings: probe TNS (fluorescent probe), pKa of the cationic lipid of formula (I)
Protocol: Unless indicated otherwise, all pKa's referred to herein were measured at standard temperature and pressure. Also, unless otherwise indicated, all references to pKa are references to pKa measured using the following technique. 2 mM solution of lipid in ethanol was prepared by weighing the lipid and then dissolving it in ethanol. 0.3 mM solution of fluorescent probe TNS in ethanol:methanol 9:1 was prepared by first making 3 mM solution of TNS in methanol and then diluting to 0.3 mM with ethanol. An aqueous buffer containing 200 mM sodium phosphate dibasic and 100 mM citric acid was prepared. […] Using the Hamilton Microlab Star high throughput liquid handler and Hamilton run control software Software, 7.5 uL of probe/lipid mix were added to 242.5 uL of buffer in a 1 mL 96 well plate (model NUNC 260252, […] Nunc International). This was done with all twelve buffers. After mixing in 1 mL 96 well plate, 100 uL of each probe/lipid/buffer mixture was transferred to a 250 uL black with clear bottom 96 well plate (model COSTAR 3904, Corning). The fluorescence measurements are carried out on the SpectraMax M5 spectrophotometer using software SoftMax pro 5.2 and following parameters: After the measurement, the background fluorescence value of an empty well on the 96 well plate was subtracted from each probe/lipid/buffer mixture. The fluorescence intensity values were then normalized to the value at lowest pH. The normalized fluorescence intensity vs. pH chart was then plotted in the Microsoft Excel software. The twelve points were connected with a smooth line. The point on the line at which the normalized fluorescence intensity was equal to 0.5 was found. […] The pKa determined using this method is precise to about 0.1 pKa units.

PLK-1 mRNA = test: LS411N Xenograft Assay with PLK1-424 siRNA lipid nanoparticles; assay type: in vivo, Female Nu/Nu mice; settings: percent knock down of PLK-1 mRNA in tumor vs control; 3 mg/kg IV daily for three days, 24 h post last injection; stealth lipid S010
Protocol: Female Nu/Nu mice (6-8 weeks old) were implanted subcutaneously with 5×10^6 LS411N cells. Tumor growth was monitored by caliper measurement before treatment initiation. Mice bearing 150-250 mm^3 subcutaneous tumors were randomized and enrolled in the study. The stock siRNA formulations were diluted to […] with PBS for dosing. Animals enrolled in different groups received a single daily bolus IV injection of 3 mg/kg siRNA for three days. Tumors were harvested 24 hours post last injection to assess target gene regulation by qRT-PCR.
Lipid nanoparticles comprising lipid compounds of formula (I) and the PLK1-424 siRNA duplex sequence listed above were tested in the LS411N Xenograft Assay. The results of this assay are given in Table 5 below as a percent knock down of PLK-1 mRNA as compared to the control when administered as a single daily dose for three days at a dose of 3 mg/kg.

[5] = Table 4, FVII siRNA LNP, Chol/DSPC/stealth lipid S010, 45/44/9/2
[6] = Chol/DSPC/stealth lipid S010, molar ratio 45/44/9/2
[7] = Table 4, FVII siRNA LNP, Chol/DSPC/stealth lipid PEG-DMG, 45/44/9/2
[8] = Table 5, PLK1-424 siRNA LNP, stealth lipid S010, 45/44/9/2
[9] = Chol/DSPC/stealth lipid PEG-DMG, molar ratio 45/44/9/2

Compound	PDI [2, 5]	Size (nm) [3, 6] [nm]	pKa ([4]; Table 4)	PDI [2, 7]	also measured
CCCCC/C=C\C/C=C\CCCCCCCC(=O)OCc1cc(COC(=O)CCCCCCC/C=C\C/C=C\CCCCC)cc(COC(=O)OCCCN(CC)CC)c1 [Example 69]	0.053	98.13	5.3		anti-RSV-F titer 2wp1 pool 1 ([1]; 2 weeks after first dose): 2853; anti-RSV-F titer 2wp1 pool 2 ([1]; 2 weeks after first dose): 4481; anti-RSV-F titer 2wp2 pool 1 ([1]; 2 weeks after second dose): 23851; anti-RSV-F titer 2wp2 pool 2 ([1]; 2 weeks after second dose): 20793; anti-RSV-F titer 4wp2 pool 1 ([1]; 4 weeks after second dose): 19075; anti-RSV-F titer 4wp2 pool 2 ([1]; 4 weeks after second dose): 21504
CCCCCCCC(=O)OCC(CCOc1cc(CN(C)C)cc(OCCC(COC(=O)CCCCCCC)OC(=O)CCCCCCC)c1)OC(=O)CCCCCCC (stereo not drawn) [Example 91]	0.053		6.01	0.06	PDI [2, 8]: 0.032; pKa ([4]; Table 5): 6.01; LS411 KD 3 × 3 mg/Kg (PLK-1 mRNA): 45%
CC/C=C\C/C=C\C/C=C\CCCCCCCC(=O)OCCCCOc1cc(CN(C)C)cc(OCCCCOC(=O)CCCCCCC/C=C\C/C=C\C/C=C\CC)c1 [Example 62]	0.066	102.5	5.9		
CCCCCCCCCCOC(=O)CCCCCCCOc1cc(CN(C)C)cc(OCCCCCCCC(=O)OCCCCCCCCCC)c1 [Example 57]	0.059		5.94	0.03	PDI [2, 8]: 0.038; pKa ([4]; Table 5): 5.94; LS411 KD 3 × 3 mg/Kg (PLK-1 mRNA): 60%
CCCCCCCC(=O)OCC(COC(=O)CCCCCCC)COc1cc(CN(C)C)cc(OCC(COC(=O)CCCCCCC)COC(=O)CCCCCCC)c1 [Example 111]	0.048	161.9	6.27		
CCCCCCCCCCCCCC(=O)OCCCCOc1cc(CN(C)C)cc(OCCCCOC(=O)CCCCCCCCCCCCC)c1 [Example 61]	0.076	81.79	5.82		
CCCCCCCC(=O)OCC(CCCCOc1cc(CN(C)C)cc(OCCCCC(COC(=O)CCCCCCC)COC(=O)CCCCCCC)c1)COC(=O)CCCCCCC [Example 110]	0.071	183.3	5.66		
CCCCCCCC(=O)OCCCCCCCCCC(=O)OCc1cc(COC(=O)CCCCCCCCCOC(=O)CCCCCCC)cc(CN(C)C)c1 [Example 86]	0.058	120.3	5.84	0.05	Size (nm) [3, 9]: 128.7 nm
CCCCCCCC(=O)OC[C@H](CCOc1cc(CN(C)C)cc(OCC[C@@H](COC(=O)CCCCCCC)OC(=O)CCCCCCC)c1)OC(=O)CCCCCCC [Example 93]	0.071	121.5	6		
CCCCCCCCCC(=O)OCCCCCCOc1cc(CN(C)C)cc(OCCCCCCOC(=O)CCCCCCCCC)c1 [Example 47]	0.035	125.9	6.07	0.06	Size (nm) [3, 9]: 109.3 nm

Further lines, with some results ahead:

PDI [2, 5]	Size (nm) [3, 6] [nm]	pKa ([4]; Table 4)	PDI [2, 7]	Compound	also measured
0.119	170.7	5.83		CCCCCC(=O)OCCCCCCCCOc1cc(CN(C)C)cc(OCCCCCCCCOC(=O)CCCCC)c1 [Example 41]	
0.042	79.15	5.85	0.06	CCCCC/C=C\C/C=C\CCCCCCCC(=O)OCc1cc(COC(=O)CCCCCCC/C=C\C/C=C\CCCCC)cc(CN(C)C)c1 [Example 33]	Size (nm) [3, 9]: 107.8 nm
0.046	111.1	5.99		CCCCC/C=C\C/C=C\CCCCCCCC(=O)OCCCCOc1cc(CN2CC(O)C2)cc(OCCCCOC(=O)CCCCCCC/C=C\C/C=C\CCCCC)c1 [Example 49]	
0.064	119.2	6.03		CCCCC/C=C\C/C=C\CCCCCCCC(=O)OCCCC(=O)OCc1cc(COC(=O)CCCOC(=O)CCCCCCC/C=C\C/C=C\CCCCC)cc(CN(C)C)c1 [Example 82]	
0.083	149.3	6.04		CCCCCCCCCOC(=O)OCCCCCC(=O)OCc1cc(COC(=O)CCCCCOC(=O)OCCCCCCCCC)cc(CN(C)C)c1 [Example 106]	
0.089	159.2	6.07		CCCCCCCC(=O)OCCCCCCCC(=O)OCc1cc(COC(=O)CCCCCCCOC(=O)CCCCCCC)cc(CN(C)C)c1 [Example 87]	
